Reference: ChEMBL document CHEMBL2424524, “Synthesis and biological evaluation of novel ocotillol-type triterpenoid derivatives as antibacterial agents” (Eur J Med Chem, 2013)
Converted amounts (≈) assume the structure as drawn.

What was measured:
[1] = tested on: Escherichia coli; experiment: Antibacterial activity against Escherichia coli by dilution technique; format: functional
[2] = tested on: Pseudomonas aeruginosa; experiment: Antibacterial activity against Pseudomonas aeruginosa by dilution technique; format: functional
[3] = tested on: Acinetobacter baumannii; experiment: Antibacterial activity against Acinetobacter baumannii by dilution technique; format: functional
[4] = tested on: Bacillus subtilis; experiment: Antibacterial activity against Bacillus subtilis 168 by dilution technique; format: functional; conditions: subsp. subtilis str. 168
[5] = tested on: Staphylococcus aureus; experiment: Antibacterial activity against Staphylococcus aureus RN4220 by dilution technique; format: functional
[6] = Selectivity index, ratio of IC50 for human HEK293 cells to MIC for Staphylococcus aureus RN4220; format: functional
[7] = Selectivity index, ratio of IC50 for human HeLa cells to MIC for Staphylococcus aureus RN4220; format: functional
[8] = Selectivity index, ratio of IC50 for human HEK293 cells to MIC for community associated methicillin-resistant Staphylococcus aureus USA300; format: functional
[9] = Selectivity index, ratio of IC50 for human HeLa cells to MIC for community associated methicillin-resistant Staphylococcus aureus USA300; format: functional
[10] = tested on: HeLa; experiment: Cytotoxicity against human HeLa cells after 72 hrs by MTT assay; format: cell-based
[11] = tested on: HEK293; experiment: Cytotoxicity against human HEK293 cells after 72 hrs by MTT assay; format: cell-based; conditions: HEK293, 72 h
[12] = tested on: Bacillus subtilis; experiment: Antibacterial activity against Bacillus subtilis 168 by dilution technique in presence of chloramphenicol; format: functional, subsp. subtilis str. 168
[13] = tested on: Staphylococcus aureus; experiment: Antibacterial activity against community associated methicillin-resistant Staphylococcus aureus USA300 by dilution technique in presence of chloramphenicol; format: functional
[14] = tested on: Bacillus subtilis; experiment: Antibacterial activity against Bacillus subtilis 168 by dilution technique in presence of kanamycin; format: functional, subsp. subtilis str. 168
[15] = tested on: Staphylococcus aureus; experiment: Antibacterial activity against community associated methicillin-resistant Staphylococcus aureus USA300 by dilution technique in presence of kanamycin; format: functional
[16] = tested on: Staphylococcus aureus; experiment: Antibacterial activity against community associated methicillin-resistant Staphylococcus aureus USA300 by dilution technique; format: functional

Structure (SMILES)	MIC [1] [µg/mL]	MIC [2] [µg/mL]	MIC [3] [µg/mL]	MIC [4] [µg/mL]	MIC [5] [µg/mL]	Selectivity Index [6]	Selectivity Index [7]	Selectivity Index [8]	Selectivity Index [9]	IC50 [10] [µg/mL]	IC50 [11] [µg/mL]	fractional inhibitory concentration index (FICI) [12]	fractional inhibitory concentration index (FICI) [13]	fractional inhibitory concentration index (FICI) [14]	fractional inhibitory concentration index (FICI) [15]	MBC [4] [µg/mL]	MBC [5] [µg/mL]	MBC [16] [µg/mL]	MIC [16] [µg/mL]
CC(C)(O)[C@H]1CC[C@@](C)([C@H]2CC[C@]3(C)[C@@H]2[C@H](O)C[C@@H]2[C@@]4(C)CCC(=O)C(C)(C)[C@@H]4CC[C@]23C)O1	> 128	> 128	> 128	128 (≈ 270 µM)	128 (≈ 270 µM)														
CC(=O)O[C@@H]1C[C@@H]2[C@@]3(C)CC[C@H](O)C(C)(C)[C@@H]3CC[C@@]2(C)[C@]2(C)CC[C@H]([C@]3(C)CC[C@@H](C(C)(C)O)O3)[C@@H]12	64 (≈ 123 µM)	64 (≈ 123 µM)	64 (≈ 123 µM)	> 128	> 128														
CC(C)(O)[C@@H]1CC[C@@](C)([C@H]2CC[C@]3(C)[C@@H]2C(=O)C[C@@H]2[C@@]4(C)CC[C@H](O)C(C)(C)[C@@H]4CC[C@]23C)O1	64 (≈ 135 µM)	> 128	> 128	> 128	64 (≈ 135 µM)														
CC(C)(O)[C@@H]1CC[C@@](C)([C@H]2CC[C@]3(C)[C@@H]2[C@H](OC(=O)c2ccccc2C(=O)O)C[C@@H]2[C@@]4(C)CC[C@H](O)C(C)(C)[C@@H]4CC[C@]23C)O1	> 128	128 (≈ 205 µM)	> 128	16 (≈ 25.6 µM)	4 (≈ 6.4 µM)	43.8	13.6	5.5	1.7	54.4 (≈ 87 µM)	175 (≈ 281 µM)	<0.004	0.005	<0.008	0.008	64 (≈ 102 µM)	64 (≈ 102 µM)	128 (≈ 205 µM)	32 (≈ 51.2 µM)
CC(C)(O)[C@@H]1CC[C@@](C)([C@H]2CC[C@]3(C)[C@@H]2[C@H](OC(=O)/C=C/c2ccccc2)C[C@@H]2[C@@]4(C)CC[C@H](O)C(C)(C)[C@@H]4CC[C@]23C)O1	> 128	128 (≈ 211 µM)	32 (≈ 52.7 µM)	> 128	> 128														
CC(=O)O[C@@H]1C[C@@H]2[C@@]3(C)CC[C@H](O)C(C)(C)[C@@H]3CC[C@@]2(C)[C@]2(C)CC[C@H]([C@]3(C)CC[C@H](C(C)(C)O)O3)[C@@H]12	64 (≈ 123 µM)	128 (≈ 247 µM)	128 (≈ 247 µM)	> 128	64 (≈ 123 µM)														
CC(C)(O)[C@H]1CC[C@@](C)([C@H]2CC[C@]3(C)[C@@H]2C(=O)C[C@@H]2[C@@]4(C)CC[C@H](O)C(C)(C)[C@@H]4CC[C@]23C)O1	> 128	> 128	> 128	128 (≈ 270 µM)	> 128														
CC(C)(O)[C@H]1CC[C@@](C)([C@H]2CC[C@]3(C)[C@@H]2[C@H](OC(=O)c2ccccc2C(=O)O)C[C@@H]2[C@@]4(C)CC[C@H](O)C(C)(C)[C@@H]4CC[C@]23C)O1	> 128	> 128	> 128	16 (≈ 25.6 µM)	64 (≈ 102 µM)											128 (≈ 205 µM)			64 (≈ 102 µM)
CC(C)(O)[C@H]1CC[C@@](C)([C@H]2CC[C@]3(C)[C@@H]2[C@H](O)C[C@@H]2[C@@]4(C)CC[C@H](O)C(C)(C)[C@@H]4CC[C@]23C)O1	> 128	> 128	128 (≈ 268 µM)	128 (≈ 268 µM)	64 (≈ 134 µM)														
CC(C)(O)[C@@H]1CC[C@@](C)([C@H]2CC[C@]3(C)[C@@H]2C(=O)C[C@@H]2[C@@]4(C)CCC(=O)C(C)(C)[C@@H]4CC[C@]23C)O1	> 128	> 128	> 128	64 (≈ 135 µM)	16 (≈ 33.8 µM)	10.6	2.9	10.6	2.9	47 (≈ 99.4 µM)	170 (≈ 360 µM)								16 (≈ 33.8 µM)
CC(C)(O)[C@@H]1CC[C@@](C)([C@H]2CC[C@]3(C)[C@@H]2[C@H](O)C[C@@H]2[C@@]4(C)CCC(=O)C(C)(C)[C@@H]4CC[C@]23C)O1	> 128	> 128	> 128	32 (≈ 67.4 µM)	> 128														
CC(C)(O)[C@H]1CC[C@@](C)([C@H]2CC[C@]3(C)[C@@H]2C(=O)C[C@@H]2[C@@]4(C)CCC(=O)C(C)(C)[C@@H]4CC[C@]23C)O1	> 128	> 128	> 128	128 (≈ 271 µM)	128 (≈ 271 µM)														
C=C(C)[C@@H]1CC[C@]2(C(=O)O)CC[C@]3(C)[C@H](CC[C@@H]4[C@@]5(C)CC[C@H](O)[C@@](C)(CO)[C@@H]5CC[C@]43C)[C@@H]12	> 128	> 128	> 128	8 (≈ 16.9 µM)	16 (≈ 33.8 µM)														16 (≈ 33.8 µM)
CC(C)=CCC[C@](C)(O)[C@H]1CC[C@]2(C)[C@@H]1[C@H](O)C[C@@H]1[C@@]3(C)CC[C@H](O)C(C)(C)[C@@H]3CC[C@]12C	64 (≈ 139 µM)	> 128	64 (≈ 139 µM)	32 (≈ 69.5 µM)	16 (≈ 34.7 µM)							0.53	1.13	0.25	0.26				32 (≈ 69.5 µM)
CC(C)(O)[C@@H]1CC[C@@](C)([C@H]2CC[C@]3(C)[C@@H]2[C@H](O)C[C@@H]2[C@@]4(C)CC[C@H](O)C(C)(C)[C@@H]4CC[C@]23C)O1	> 128	> 128	> 128	8 (≈ 16.8 µM)	8 (≈ 16.8 µM)	19.3	6	19.3	6	47.6 (≈ 99.9 µM)	154 (≈ 324 µM)	1.25	1.5	1.03	0.14				8 (≈ 16.8 µM)
O=C(N[C@H](CO)[C@H](O)c1ccc([N+](=O)[O-])cc1)C(Cl)Cl [CHLORAMPHENICOL]				2 (≈ 6.19 µM)															4 (≈ 12.4 µM)
O=c1[nH]cc(F)c(=O)[nH]1 [FLUOROURACIL]										0.8 (≈ 6.15 µM)									
NC[C@H]1O[C@H](O[C@H]2[C@H](O)[C@@H](O[C@H]3O[C@H](CO)[C@@H](O)[C@H](N)[C@H]3O)[C@H](N)C[C@@H]2N)[C@H](O)[C@@H](O)[C@@H]1O [KANAMYCIN]	1 (≈ 2.06 µM)	8 (≈ 16.5 µM)	1 (≈ 2.06 µM)	0.25 (≈ 0.516 µM)	1 (≈ 2.06 µM)											1 (≈ 2.06 µM)		4 (≈ 8.26 µM)	1 (≈ 2.06 µM)
